According to PMC11714206, “Massively Parallel Screening of Toll/Interleukin‐1 Receptor (TIR)‐Derived Peptides Reveals Multiple Toll‐Like Receptors (TLRs)‐Targeting Immunomodulatory Peptides” (Advanced Science, 2024):
Where “and” joins values, the source holds several entries; their conditions need not be identical. Identical values can stand only once. Blank lines part the entries; values can stand above or below the sequence they belong to.

Molecular target: T1, MAL^TIR (Homo sapiens, UniProt P58753)
T1 construct: MAL (residues 79–221); 6xHis; made in house; host or cells: E. coli BL21 (DE3)
T1 sequence (P58753 79-221): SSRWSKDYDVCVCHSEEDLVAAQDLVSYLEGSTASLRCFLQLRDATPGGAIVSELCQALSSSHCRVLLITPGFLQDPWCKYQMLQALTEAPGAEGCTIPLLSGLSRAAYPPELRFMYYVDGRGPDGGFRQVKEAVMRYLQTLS
Assay: T‐Surf phage library (P8 and P3) selection against MAL^TIR, four rounds, NGS read counts
Type: binding
Settings: for P3_MAL Rank (after) / P3_MAL Rank (before): P3 library; for P8_MAL Rank (after) / P8_MAL Rank (before): P8 library; for Population: 4th round of selection against MAL TIR, share of NGS reads
Procedure, shortened: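 Read counts come from NGS of phage pools after the fourth selection round, barcoded by 20-cycle PCR and filtered for quality ≥30. Each round: phage incubated 1 h at RT on immobilised TIR protein (5 µg mL^−1, BSA-blocked), washed, HCl-eluted and amplified in E. coli TG1.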

[1] = 4R selection against MAL, rank after grouping
[2] = 4R selection against MAL, rank before grouping
[3] = selection against MAL, rank by count after grouping
[4] = selection against MAL, rank by count before grouping
[5] = P3_MAL: rank by count after grouping
[6] = P3_MAL: rank by count before grouping
[7] = P8_MAL: rank by count after grouping
[8] = P8_MAL: rank by count before grouping
[9] = selection against MAL, rank after grouping
[10] = selection against MAL, rank before grouping
[11] = selection against MAL TIR, rank by count after grouping
[12] = selection against MAL TIR, rank by count before grouping

- P3_MAL Rank (after) [1]: 614
- P3_MAL Rank (before) [2]: 3674
Sequence: KMQKWKDALYEAANE

- P3_MAL Rank (after) [3]: 734
- P3_MAL Rank (before) [4]: 3683
Sequence: KMQKWKDALYEAANPT

- Rank (after) [5]: 108
- Rank (before) [6]: 233
Sequence: KMQKWKEALHQFHSWV

- P3_MAL Rank (after) [3]: 691
- P3_MAL Rank (before) [4]: 3654
Sequence: KMQQWQDALYEAANLS

- P3_MAL Rank (after) [3]: 696
- P3_MAL Rank (before) [4]: 3747
Sequence: KNLFHELVIKNIRTFM

- Rank (after) [5]: 458
- Rank (before) [6]: 3753
Sequence: KNLFNELVRKNLRTFM

- Rank (after) [7]: 116
- Rank (before) [8]: 732
Sequence: KNLFNELVSKNIRTFM

- P3_MAL Rank (after) [9]: 567
- P3_MAL Rank (before) [10]: 3780
Sequence: KNLFNEMVSKNIRTYM

- P3_MAL Rank (after) [3]: 712
- P3_MAL Rank (before) [4]: 3473
Sequence: KNLFYDLVSKNIRTFM

- P3_MAL Rank (after) [3]: 697
- P3_MAL Rank (before) [4]: 3474
Sequence: KNVRLARSVRKNGVP

- P3_MAL Rank (after) [1]: 660
- P3_MAL Rank (before) [2]: 3467
Sequence: KPSVSGPEKSWHFYL

- P3_MAL Rank (after) [1]: 664
- P3_MAL Rank (before) [2]: 3635
Sequence: KQWLNAPTAAANLSGW

- P8_MAL Rank (after) [3]: 698
- P8_MAL Rank (before) [4]: 2674
Sequence: KRFEDRMNKVLEWKAA

- P3_MAL Rank (after) [11]: 242
- P3_MAL Rank (before) [12]: 3466
Sequence: KRFWERLRYMLPHSSL

- P3_MAL Rank (after) [1]: 665
- P3_MAL Rank (before) [2]: 3633
Sequence: KRISEQLRPALNVRRP

- P3_MAL Rank (after) [3]: 695
- P3_MAL Rank (before) [4]: 3728
Sequence: KSILDTEARIWAGVR

- P3_MAL Rank (after) [11]: 248
- P3_MAL Rank (before) [12]: 3718
Sequence: KSILDTEARIWGWLFA

- Population (P3_MAL pool: P3 T-Surf phage library): 0.0233%
- Rank (after) [5]: 101
- Rank (before) [6]: 102
Sequence: KTLAGLLYDHLFRLRL

- P3_MAL Rank (after) [1]: 639
- P3_MAL Rank (before) [2]: 3743
Sequence: KTLAGLRCDHLFRLRL

- P3_MAL Rank (after) [3]: 758
- P3_MAL Rank (before) [4]: 3484
Sequence: KWFLAKLIYALSRNPH

- P3_MAL Rank (after) [9]: 545
- P3_MAL Rank (before) [10]: 3495
Sequence: KWFWDKLIYALSRIR

- P8_MAL Rank (after) [11]: 231
- P8_MAL Rank (before) [12]: 1067
Sequence: KWFWDKLIYALSRNPH

- P3_MAL Rank (after) [11]: 239
- P3_MAL Rank (before) [12]: 3510
Sequence: KWFWDKLIYPLSRNPQ

- P3_MAL Rank (after) [1]: 672
- P3_MAL Rank (before) [2]: 3487
Sequence: KWFWDTLTYAPNLSPH

- P3_MAL Rank (after) [1]: 602
- P3_MAL Rank (before) [2]: 3516
Sequence: KWFWEKLRYALTYRPAT

- Rank (after) [7]: 110
- Rank (before) [8]: 2161
Sequence: LCFCESLKQLLRSDGR

- P8_MAL Rank (after) [9]: 535
- P8_MAL Rank (before) [10]: 2162
Sequence: LCFRESLKQLLRSNGR

- Rank (after) [5]: 453
- Rank (before) [6]: 2129
Sequence: LELGDPYFWSKLRYAM

- Rank (after) [7]: 169
- Rank (before) [8]: 2151
Sequence: LFCWESLKQLLRSDCR

- P8_MAL Rank (after) [11]: 244
- P8_MAL Rank (before) [12]: 2057
Sequence: LFFCESLKQLLRSDGH

- Population (P8_MAL pool: P8 T-Surf phage library): 0.00371% and 0.0034%
Sequence: LFFCESLKQLLRSDGR

- P8_MAL Rank (after) [1]: 580
- P8_MAL Rank (before) [2]: 2134
Sequence: LFFGASLKQLLRSDGR

- P8_MAL Rank (after) [1]: 649
- P8_MAL Rank (before) [2]: 2136
Sequence: LFFGKALNSCCVAIA

- P8_MAL Rank (after) [9]: 557
- P8_MAL Rank (before) [10]: 2064
Sequence: LFFWARLKNVLGSAGS

- Rank (after) [7]: 389
- Rank (before) [8]: 2066
Sequence: LFFWASLKNLLRSAGS

- P8_MAL Rank (after) [1]: 648
- P8_MAL Rank (before) [2]: 2065
Sequence: LFFWASLNKLLRSDGR

- P8_MAL Rank (after) [1]: 593
- P8_MAL Rank (before) [2]: 2068
Sequence: LFFWDSLKHLLRCDGC

- P8_MAL Rank (after) [9]: 564
- P8_MAL Rank (before) [10]: 2069
Sequence: LFFWDSLKQLLRSAGR

- P8_MAL Rank (after) [11]: 283
- P8_MAL Rank (before) [12]: 2070
Sequence: LFFWDSLKQLMRSDGR

- P8_MAL Rank (after) [1]: 601
- P8_MAL Rank (before) [2]: 2071
Sequence: LFFWECLKKLLRRDGR

- P8_MAL Rank (after) [9]: 513
- P8_MAL Rank (before) [10]: 2073
Sequence: LFFWEHLKQLLRNDGR

- Rank (after) [7]: 454
- Rank (before) [8]: 2074
Sequence: LFFWEILKQLLRSAGR

- P8_MAL Rank (after) [3]: 693
- P8_MAL Rank (before) [4]: 2067
Sequence: LFFWEKLKSVLGNPTM

- Rank (after) [7]: 387
- Rank (before) [8]: 2124
Sequence: LFFWEKLRQLLRRAAS

- Rank (after) [7]: 100
- Rank (before) [8]: 2072
Sequence: LFFWERLKQLLRSDCR

- P8_MAL Rank (after) [9]: 531
- P8_MAL Rank (before) [10]: 2114
Sequence: LFFWESLKKLLRSAGR

- Rank (after) [7]: 431
- Rank (before) [8]: 2115
Sequence: LFFWESLKNVLGSDGR

- P8_MAL Rank (after) [9]: 495
- P8_MAL Rank (before) [10]: 2116
Sequence: LFFWESLKNVLRKPGL

- Rank (after) [7]: 467
- Rank (before) [8]: 2088
Sequence: LFFWESLKPLPRRDGR

- Rank (after) [7]: 177
- Rank (before) [8]: 909
Sequence: LFFWESLKQLLGNPTM

- Rank (after) [7]: 473
- Rank (before) [8]: 2095
Sequence: LFFWESLKQLLRAMA
